Where a name gives a salt, the structure may show the parent alone.
Key:
Test in all cases: MIC, agar dilution
Format in all cases: cell-based
[1] = test system: Acinetobacter calcoaceticus, 8333; conditions: K-10 agar, 10^4 CFU, 37°C
Description: (§1) The following methodology is used to determine the minimum inhibitory concentration (hereinafter referred to as MIC) of the […] of this invention.
(§2) The test organisms are grown in approximately 15-20 ml of Antibiotic Assay broth (Difco) by inoculating (in tubes) the broth with a loopful of the organism from a BHI (Difco) agar slant. The inoculated tubes are incubated at 37°C for 18 to 20 hours. These cultures are assumed to contain 10^9 colony forming units (hereinafter CFU) per milliliter. The cultures are diluted 1:100 to give a final inoculum level of 10^4 CFU; dilutions are made with K-10 broth^*.
(§3) The compounds are dissolved in the appropriate diluent at a concentration of 1000 µg/ml. Twofold dilutions are made in K-10 broth resulting in a range from 1000 µg/ml to 0.5 µg/ml. 1.5 ml of each dilution is placed into individual square petri dishes to which 13.5 ml of K-10 agar^** is added. The final drug concentration in the agar ranges from 100 µg/ml to 0.05 µg/ml. Organism growth control plates containing agar only are prepared and inoculated before and after the test plates. The organisms are applied to the agar surface of each plate with the Denley Multipoint Inoculator (which delivers approximately 0.001 ml of each organism) resulting in a final inoculum level of 10^4 CFU on the agar surface.
(§4) The plates are incubated at 37 °C for 18 hours and the MIC's are determined. The MIC is the lowest concentration of compound inhibiting growth of the organism.
(§5) The tables that follow are tabulated results obtained when the B-lactams of this invention are tested against various organisms. The number following each organism refers to the number of the organism in the collection of E. R. Squibb & Sons,.Inc., Princeton, New Jersey. […] The symbol "N.T." means not tested.

[2] = test system: Citrobacter freundii, 9518; conditions: K-10 agar, 10^4 CFU, 37°C
Description: as §1, §2, §3, §4, §5

[3] = test system: Enterobacter aerogenes, 10078
Description: as §1, §2, §3, §4, §5

Escherichia coli, 10857 = conditions: K-10 agar, 10^4 CFU, 37°C
Description: as §1, §2, §3, §4, §5

Escherichia coli, 10896 = conditions: K-10 agar, 10^4 CFU, 37°C, 18 hours
Description: as §1, §2, §3, §4, §5

Escherichia coli, 10909 = conditions: K-10 agar, 10^4 CFU, 37°C, 18 hours
Description: as §1, §2, §3, §4, §5

Escherichia coli, 8294 = conditions: K-10 agar, 10^4 CFU, 37°C
Description: as §1, §2, §3, §4, §5

[4] = test system: Klebsiella aerogenes, 10440; conditions: K-10 agar, 10^4 CFU, 37°C
Description: as §1, §2, §3, §4, §5

[5] = test system: Klebsiella pneumoniae, 9527; conditions: K-10 agar, 10^4 CFU, 37°C
Description: as §1, §2, §3, §4, §5

Proteus mirabilis, 3855 = conditions: K-10 agar, 10^4 CFU, 37°C
Description: as §1, §2, §3, §4, §5

Proteus rettgeri, 8479 = conditions: K-10 agar, 10^4 CFU, 37°C
Description: as §1, §2, §3, §4, §5

Proteus vulgaris, 9416 = conditions: K-10 agar, 10^4 CFU, 37°C
Description: as §1, §2, §3, §4, §5

[6] = test system: Pseudomonas aeruginosa, 8329; conditions: K-10 agar, 10^4 CFU, 37°C
Description: as §1, §2, §3, §4, §5

[7] = test system: Pseudomonas aeruginosa, 9545; conditions: K-10 agar, 10^4 CFU, 37°C
Description: as §1, §2, §3, §4, §5

Salmonella typhosa, 1195 = conditions: K-10 agar, 10^4 CFU, 37°C
Description: as §1, §2, §3, §4, §5

[8] = test system: Serratia marcescens, 9783; conditions: K-10 agar, 10^4 CFU, 37°C
Description: as §1, §2, §3, §4, §5

Shigella sonnei, 8449 = conditions: K-10 agar, 10^4 CFU, 37°C, 18 hours
Description: as §1, §2, §3, §4, §5

[9] = test system: Staphylococcus aureus, 10165
Description: as §1, §2, §3, §4, §5

[10] = test system: Staphylococcus aureus, 1276
Description: as §1, §2, §3, §4, §5

[11] = test system: Staphylococcus aureus, 2399
Description: as §1, §2, §3, §4, §5

[12] = test system: Staphylococcus aureus, 2400
Description: as §1, §2, §3, §4, §5

[13] = test system: Streptococcus faecalis, 9011
Description: as §1, §2, §3, §4, §5

Micrococcus luteus, 2495 = conditions: Micrococcus luteus, 2495, 18 h, K-10 agar, 10^4 CFU, 37°C
Description: as §1, §2, §3
(§6) The MIC is the lowest concentration of compound inhibiting growth of the organism.
(§7) The number following each organism refers to the number of the organism in the collection of E. R. Squibb & Sons,.Inc., Princeton, New Jersey. […] The symbol "N.T." means not tested.

[14] = test system: Streptococcus agalactiae, 9287; conditions: K-10 agar, 10^4 CFU, 37°C, 18 hours
Description: as §1, §2, §3, §6, §7

SMILES: C[C@@H]1[C@H](NC(=O)/C(=N\OC(C)(C)C(=O)O)c2csc(N)n2)C(=O)N1S(=O)(=O)O [Example 16, [3α(Z),4α]-3-[[(2-Amino-4-thiazolyl) [(1-carboxy-1-methylethoxy)imino]acetyl]amino]-4-methyl-2-oxo-l-azetidinesulfonic acid, potassium salt (1:2)]
- MIC ([1]; Acinetobacter calcoaceticus, 8333, 18 h): 50 µg/mL
- MIC ([2]; Citrobacter freundii, 9518, 18 h): 0.8 µg/mL
- MIC ([3]; Klebsiella aerogenes, 10078, 18 h): 0.8 µg/mL
- MIC (Escherichia coli, 10857; Escherichia coli, 10857, 18 h): 0.2 µg/mL
- MIC (Escherichia coli, 10896): 0.2 µg/mL
- MIC (Escherichia coli, 10909): < 0.05 µg/mL
- MIC (Escherichia coli, 8294; Escherichia coli, 8294, 18 h): 0.4 µg/mL
- MIC ([4]; Klebsiella aerogenes, 10440, 18 h): 0.8 µg/mL
- MIC ([5]; Klebsiella pneumoniae, 9527, 18 h): 0.1 µg/mL
- MIC (Proteus mirabilis, 3855; Proteus mirabilis, 3855, 18 h): < 0.05 µg/mL
- MIC (Proteus rettgeri, 8479; Providencia rettgeri, 8479, 18 h): < 0.05 µg/mL
- MIC (Proteus vulgaris, 9416; Proteus vulgaris, 9416, 18 h): < 0.05 µg/mL
- MIC ([6]; Pseudomonas aeruginosa, 8329, 18 h): 3.1 µg/mL
- MIC ([7]; Pseudomonas aeruginosa, 9545, 18 h): 0.8 µg/mL
- MIC (Salmonella typhosa, 1195; Salmonella enterica, TYPHOSA, 18 h): < 0.05 µg/mL
- MIC ([8]; Serratia marcescens, 9783, 18 h): 0.4 µg/mL
- M.I.C. (Shigella sonnei, 8449): 0.4 µg/mL
- MIC ([9]; Staphylococcus aureus, 10165, 18 h): > 100 µg/mL
- MIC ([10]; Staphylococcus aureus, 1276, 18 h): > 100 µg/mL
- MIC ([11]; Staphylococcus aureus, 2399, 18 h): > 100 µg/mL
- MIC ([12]; Staphylococcus aureus, 2400, 18 h): > 100 µg/mL
- MIC ([13]; Enterococcus faecalis, 9011, 18 h): > 100 µg/mL
- MIC (Micrococcus luteus, 2495): 25 µg/mL
- M.I.C. [14]: 50 µg/mL

SMILES: C[C@@H]1[C@H](NC(=O)/C(=N\OC(C)(C)C(=O)O)c2csc(N)n2)C(=O)N1S(=O)(=O)O [Example 23, [3S-(3α(Z),4a]]-3-[[(2-Amino-4-thiazolyl) [(1-carboxy-1-methylethoxy)imino)acetyl]amino]-4-methyl-2-oxo-l-azetidinesulfonic acid, potassium salt (1:2)]
- M.I.C. ([1]; 18 hours): 25 µg/mL
- M.I.C. ([2]; 18 hours): 0.4 µg/mL
- M.I.C. ([3]; Enterobacter aerogenes, 10078, K-10 agar, 10^4 CFU, 37°C, 18 hours): 0.8 µg/mL
- M.I.C. (Escherichia coli, 10857; 18 hours): 0.1 µg/mL
- M.I.C. (Escherichia coli, 10896): 0.2 µg/mL
- M.I.C. (Escherichia coli, 8294; 18 hours): 0.2 µg/mL
- M.I.C. ([4]; 18 hours): 0.4 µg/mL
- M.I.C. ([5]; 18 hours): 0.05 µg/mL
- M.I.C. (Proteus mirabilis, 3855; 18 hours): 0.05 µg/mL
- M.I.C. (Proteus rettgeri, 8479; 18 hours): 0.05 µg/mL
- M.I.C. (Proteus vulgaris, 9416; 18 hours): 0.05 µg/mL
- M.I.C. ([6]; 18 hours): 1.6 µg/mL
- M.I.C. ([7]; 18 hours): 0.4 µg/mL
- M.I.C. (Salmonella typhosa, 1195; 18 hours): 0.05 µg/mL
- M.I.C. ([8]; 18 hours): 0.2 µg/mL
- M.I.C. (Shigella sonnei, 8449): 0.1 µg/mL
- M.I.C. ([9]; Staphylococcus aureus, 10165, K-10 agar, 10^4 CFU, 37°C, 18 hours): - (A dash (-) in the tables means that the compound tested did not show activity against the particular organism at 100 µg/ml)
- M.I.C. ([10]; Staphylococcus aureus, 1276, K-10 agar, 10^4 CFU, 37°C, 18 hours): - (A dash (-) in the tables means that the compound tested did not show activity against the particular organism at 100 µg/ml)
- M.I.C. ([11]; Staphylococcus aureus, 2399, K-10 agar, 10^4 CFU, 37°C, 18 hours): - (A dash (-) in the tables means that the compound tested did not show activity against the particular organism at 100 µg/ml)
- M.I.C. ([12]; Staphylococcus aureus, 2400, K-10 agar, 10^4 CFU, 37°C, 18 hours): - (A dash (-) in the tables means that the compound tested did not show activity against the particular organism at 100 µg/ml)
- M.I.C. ([13]; Streptococcus faecalis, 9011, K-10 agar, 10^4 CFU, 37°C, 18 hours): - (A dash (-) in the tables means that the compound tested did not show activity against the particular organism at 100 µg/ml)

Source: EP0187355A1, “Process for preparing beta-lactam antibiotics” (E.R. Squibb & Sons, Inc., priority 1981, dated 1982)
